# Laboratory results from PubChem BioAssay AID489024 (Sanford-Burnham Center for Chemical Genomics, 2010).
# Calls of active or inactive are those of the source.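 How the source made its calls: active means compounds whose mean EC50, the dose giving half the maximal reporter activation, is at or below a set limit; inactive means the rest.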
# Biological target: CHO-CHOP luciferase reporter, UPR activation, luminescence
# Test: CHOP reporter induction, apoptotic UPR branch – CHO-CHOP cells, luciferase luminescence, confirmation (AID 489024);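 further: compounds added alone to reporter cells with no tunicamycin stress co-treatment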
row,EC50,Compound
1,17.8 µM,O=C(CCl)Nc1cccc(S(=O)(=O)NC2=NCCCCC2)c1
2,8.25 µM,COc1ccc(NC(=O)C(=O)N/N=C\c2ccc(CNC(=O)C(=O)Nc3ccc(C)c(C)c3)o2)c(OC)c1
3,inactive,COc1ccccc1C(=O)NC(=S)NNC(=O)c1sc2ccccc2c1Cl
